Measurements published in US20250262336A1, “[177LU] LUTETIUM-PSMA I&T COMPOSITION AND DOSIMETRY, KIT, METHOD OF MAKING, AND METHOD OF USING THEREOF” (Curium US LLC, priority 2023, published 2025).

How the values were obtained:
[1] = Cycle 3 biodistribution and dosimetry (SPECT/CT, single or multiple time points); assay type: in vivo, human
Description: (§1) To evaluate potential changes in the tracer's kinetics and uptake after multiple treatment cycles, 16 of the 27 patients included in the dosimetry sub study, were imaged at both cycle 1 and cycle 3. Among these, at cycle 3, three patients were imaged at all 4 timepoints and the other 13 were imaged at one or two timepoints only (24 h, 48 h or both 24 h and 48 h) (Table 2). For these 13 patients, the TACs obtained at cycle 1 were used for each source organ and scaled to the normalized activity value(s) measured at Cycle 3. For patients imaged at two timepoints, the TACs were preferably scaled using the average scaling factor between the two timepoints.
(§2) A subgroup of 16 out of the 27 patients underwent and additional dosimetry assessment at Cycle 3. Among these, three patients had dosimetry performed based on images taken at 4 timepoints, while the remaining patients had dosimetry performed at 1 or 2 imaging timepoints only.
as §1, with “7 in Appendix 1).” for “2).”
as §2, with “only, as described in Section 4.4.1.” for “only.”

[2] = Cycle 3 plasma PK modelling; assay type: in vivo, human; conditions: n = 15
Description: Whole blood samples were collected as detailed in the protocol Schedule of Events i.e. pre-injection, and then at 1 h, 4 h, 24 h, 48 h, and 168 h post-injection. The samples were first centrifuged to separate plasma, and the radioactivity in the plasma was then measured using a gamma counter. Plasma concentrations were subsequently fitted with a bi-exponential function to derive outcome parameters such as the half-life and clearance rate of the radiopharmaceutical in the plasma.
(§3) Blood samples were obtained for 15 out of 16 patients at cycle 3. Patients 12-004 had blood taken only at the 24 h timepoint and, therefore, was not included in the plasma PK analysis. Consistent with Cycle 1, the time-course of plasma concentrations was similar among the patients. The ranges of PK parameters obtained at cycle 3 were similar to those from Cycle 1 data (Tables 9A and 9B).
as §3, with “(Table 29). See Table 29) Cycle 3 PK plasma modeling results (n15)” for “(Tables 9A and 9B).”

[3] = Lacrimal Glands (OLINDA sphere model), N = 16

Absorbed Dose in Cycle 3, Mean ([1]; Adrenals, N = 16): 0.02 Gy/GBq | Absorbed Dose in Cycle 3, max ([1]; Adrenals, N = 16): 0.03 Gy/GBq | Absorbed Dose in Cycle 3, min ([1]; Adrenals, N = 16): 0.01 Gy/GBq | Absorbed Dose in Cycle 3, Mean ([1]; Brain, N = 16): 0.01 Gy/GBq | Absorbed Dose in Cycle 3, max ([1]; Brain, N = 16): 0.02 Gy/GBq | Absorbed Dose in Cycle 3, min ([1]; Brain, N = 16): 0.00 Gy/GBq | Absorbed Dose in Cycle 3, Mean ([1]; Esophagus, N = 16): 0.01 Gy/GBq | Absorbed Dose in Cycle 3, max ([1]; Esophagus, N = 16): 0.02 Gy/GBq | Absorbed Dose in Cycle 3, min ([1]; Esophagus, N = 16): 0.00 Gy/GBq | Absorbed Dose in Cycle 3, Mean ([1]; Eyes, N = 16): 0.01 Gy/GBq | Absorbed Dose in Cycle 3, max ([1]; Eyes, N = 16): 0.02 Gy/GBq | Absorbed Dose in Cycle 3, min ([1]; Eyes, N = 16): 0.00 Gy/GBq | Absorbed Dose in Cycle 3, Mean ([1]; Gallbladder wall, N = 16): 0.01 Gy/GBq | Absorbed Dose in Cycle 3, max ([1]; Gallbladder wall, N = 16): 0.02 Gy/GBq | Absorbed Dose in Cycle 3, min ([1]; Gallbladder wall, N = 16): 0.00 Gy/GBq | Absorbed Dose in Cycle 3, Mean ([1]; Heart wall, N = 16): 0.01 Gy/GBq | Absorbed Dose in Cycle 3, max ([1]; Heart wall, N = 16): 0.02 Gy/GBq | Absorbed Dose in Cycle 3, min ([1]; Heart wall, N = 16): 0.00 Gy/GBq | Absorbed Dose in Cycle 3, Mean ([1]; Kidneys, N = 16): 0.49 Gy/GBq | Absorbed Dose in Cycle 3, max ([1]; Kidneys, N = 16): 0.85 Gy/GBq | Absorbed Dose in Cycle 3, min ([1]; Kidneys, N = 16): 0.19 Gy/GBq | Absorbed Dose in Cycle 3, Mean [1, 3]: 0.29 Gy/GBq | Absorbed Dose in Cycle 3, max [1, 3]: 0.73 Gy/GBq | Absorbed Dose in Cycle 3, min [1, 3]: 0.10 Gy/GBq | Absorbed Dose in Cycle 3, Mean ([1]; Left colon, N = 16): 0.41 Gy/GBq | Absorbed Dose in Cycle 3, max ([1]; Left colon, N = 16): 0.94 Gy/GBq | Absorbed Dose in Cycle 3, min ([1]; Left colon, N = 16): 0.07 Gy/GBq | Absorbed Dose in Cycle 3, Mean ([1]; Liver, N = 16): 0.06 Gy/GBq | Absorbed Dose in Cycle 3, max ([1]; Liver, N = 16): 0.15 Gy/GBq | Absorbed Dose in Cycle 3, min ([1]; Liver, N = 16): 0.00 Gy/GBq | Absorbed Dose in Cycle 3, Mean ([1]; Lungs, N = 16): 0.01 Gy/GBq | Absorbed Dose in Cycle 3, max ([1]; Lungs, N = 16): 0.02 Gy/GBq | Absorbed Dose in Cycle 3, min ([1]; Lungs, N = 16): 0.00 Gy/GBq | Absorbed Dose in Cycle 3, Mean ([1]; Osteogenic cells, N = 16): 0.02 Gy/GBq | Absorbed Dose in Cycle 3, max ([1]; Osteogenic cells, N = 16): 0.09 Gy/GBq | Absorbed Dose in Cycle 3, min ([1]; Osteogenic cells, N = 16): 0.00 Gy/GBq | Absorbed Dose in Cycle 3, Mean ([1]; Pancreas, N = 16): 0.01 Gy/GBq | Absorbed Dose in Cycle 3, max ([1]; Pancreas, N = 16): 0.02 Gy/GBq | Absorbed Dose in Cycle 3, min ([1]; Pancreas, N = 16): 0.00 Gy/GBq | Absorbed Dose in Cycle 3, Mean ([1]; Prostate, N = 16): 0.01 Gy/GBq | Absorbed Dose in Cycle 3, max ([1]; Prostate, N = 16): 0.02 Gy/GBq | Absorbed Dose in Cycle 3, min ([1]; Prostate, N = 16): 0.01 Gy/GBq | Absorbed Dose in Cycle 3, Mean ([1]; Rectum, N = 16): 0.39 Gy/GBq | Absorbed Dose in Cycle 3, max ([1]; Rectum, N = 16): 0.90 Gy/GBq | Absorbed Dose in Cycle 3, min ([1]; Rectum, N = 16): 0.06 Gy/GBq | Absorbed Dose in Cycle 3, Mean ([1]; Red Marrow, N = 16): 0.03 Gy/GBq | Absorbed Dose in Cycle 3, max ([1]; Red Marrow, N = 16): 0.17 Gy/GBq | Absorbed Dose in Cycle 3, min ([1]; Red Marrow, N = 16): 0.00 Gy/GBq | Absorbed Dose in Cycle 3, Mean ([1]; Right Colon, N = 16): 0.22 Gy/GBq | Absorbed Dose in Cycle 3, max ([1]; Right Colon, N = 16): 0.51 Gy/GBq | Absorbed Dose in Cycle 3, min ([1]; Right Colon, N = 16): 0.04 Gy/GBq | Absorbed Dose in Cycle 3, Mean ([1]; Salivary Glands, N = 16): 0.20 Gy/GBq | Absorbed Dose in Cycle 3, max ([1]; Salivary Glands, N = 16): 0.69 Gy/GBq | Absorbed Dose in Cycle 3, min ([1]; Salivary Glands, N = 16): 0.04 Gy/GBq | Absorbed Dose in Cycle 3, Mean ([1]; Small intestine, N = 16): 0.04 Gy/GBq | Absorbed Dose in Cycle 3, max ([1]; Small intestine, N = 16): 0.10 Gy/GBq | Absorbed Dose in Cycle 3, min ([1]; Small intestine, N = 16): 0.01 Gy/GBq | Absorbed Dose in Cycle 3, Mean ([1]; Spleen, N = 16): 0.03 Gy/GBq | Absorbed Dose in Cycle 3, max ([1]; Spleen, N = 16): 0.12 Gy/GBq | Absorbed Dose in Cycle 3, min ([1]; Spleen, N = 16): 0.01 Gy/GBq | Absorbed Dose in Cycle 3, Mean ([1]; Stomach Wall, N = 16): 0.01 Gy/GBq | Absorbed Dose in Cycle 3, max ([1]; Stomach Wall, N = 16): 0.02 Gy/GBq | Absorbed Dose in Cycle 3, min ([1]; Stomach Wall, N = 16): 0.00 Gy/GBq | Absorbed Dose in Cycle 3, Mean ([1]; Testes, N = 16): 0.01 Gy/GBq | Absorbed Dose in Cycle 3, max ([1]; Testes, N = 16): 0.02 Gy/GBq | Absorbed Dose in Cycle 3, min ([1]; Testes, N = 16): 0.00 Gy/GBq | Absorbed Dose in Cycle 3, Mean ([1]; Thymus, N = 16): 0.01 Gy/GBq | Absorbed Dose in Cycle 3, max ([1]; Thymus, N = 16): 0.02 Gy/GBq | Absorbed Dose in Cycle 3, min ([1]; Thymus, N = 16): 0.00 Gy/GBq | Absorbed Dose in Cycle 3, Mean ([1]; Thyroid, N = 16): 0.01 Gy/GBq | Absorbed Dose in Cycle 3, max ([1]; Thyroid, N = 16): 0.02 Gy/GBq | Absorbed Dose in Cycle 3, min ([1]; Thyroid, N = 16): 0.00 Gy/GBq | Absorbed Dose in Cycle 3, Mean ([1]; Total Body, N = 16): 0.02 Gy/GBq | Absorbed Dose in Cycle 3, max ([1]; Total Body, N = 16): 0.03 Gy/GBq | Absorbed Dose in Cycle 3, min ([1]; Total Body, N = 16): 0.01 Gy/GBq | Absorbed Dose in Cycle 3, Mean ([1]; Urinary Bladder wall, N = 16): 0.45 Gy/GBq | Absorbed Dose in Cycle 3, max ([1]; Urinary Bladder wall, N = 16): 0.70 Gy/GBq | Absorbed Dose in Cycle 3, min ([1]; Urinary Bladder wall, N = 16): 0.36 Gy/GBq | organ absorbed radiation dose, kidneys ([1]; cycle 3, 16 patients imaged at cycle 1 and 3): 0.49±0.19 Gy/GBq | AUC Total, Mean [2]: 25.58 fIA/L × min | AUC Total, max [2]: 39.62 fIA/L × min | AUC Total, median [2]: 24.55 fIA/L × min | AUC Total, min [2]: 13.86 fIA/L × min | Peak Concentration Value, Mean [2]: 0.05 fIA/L | Peak Concentration Value, max [2]: 0.07 fIA/L | Peak Concentration Value, median [2]: 0.04 fIA/L | Peak Concentration Value, min [2]: 0.03 fIA/L | Time of Peak Concentration [2]: 55.00 min | Time of Peak Concentration, Mean [2]: 60.67 min | Time of Peak Concentration, max [2]: 68.00 min | Time of Peak Concentration, median [2]: 60.00 min | Vc, Mean [2]: 16.40 L | Vc, max [2]: 24.53 L | Vc, median [2]: 16.42 L | Vc, min [2]: 10.66 L
SMILES: O=C(O)CC[C@H](NC(=O)N[C@@H](CCCCNC(=O)CCCCCCC(=O)NCCCC[C@@H](NC(=O)[C@@H](Cc1ccccc1)NC(=O)[C@@H](Cc1ccc(O)c(I)c1)NC(=O)CC[C@H](C(=O)O)N1CCN(CC(=O)O)CCN(CC(=O)O)CCN(CC(=O)O)CC1)C(=O)O)C(=O)O)C(=O)O [^177Lu-PSMA-I&T, (3S,7 S,26R,29R,32R,37R)-29-benzyl-32-(4-hydroxy-3-iodobenzyl)-5,13,20,28,31,34-hexaoxo-37-(4,7,10-tris(carboxymethyl)-1,4,7,10-tetraazacyclododecan-1-yl)-4,6,12,21,27,30,33-heptaazaheptatriacontane-1,3,7,26,37-pentacarboxylic acid; lutetium-177 (III), metal not drawn]
Absorbed Dose in Cycle 3, Mean ([1]; in vivo): 0.29 Gy/GBq | Absorbed Dose in Cycle 3, max ([1]; in vivo): 0.73 Gy/GBq | Absorbed Dose in Cycle 3, min ([1]; in vivo): 0.10 Gy/GBq
